According to PubChem BioAssay (NCI):
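48-hour exposure; five concentrations; linearly interpolated endpoints. Abbreviation: GI50, concentration required for 50% inhibition of growth. TGI: concentration producing complete growth inhibition.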

What was measured:
Assay in all cases: NCI tumour cell line growth inhibition, 48 h
[1] = system: CAKI-1 renal
[2] = system: MOLT-4 leukemia
[3] = system: ACHN renal
[4] = system: SNB-75 CNS
[5] = system: SK-MEL-28 melanoma
[6] = system: COLO 205 colon
[7] = system: OVCAR-4 ovarian
[8] = system: BT-549 breast
[9] = system: 786-0 renal
[10] = system: MCF7 breast
[11] = system: HCT-116 colon
[12] = system: MDA-MB-435
[13] = system: SN12C renal
[14] = system: NCI-H460 lung
[15] = system: A498 renal
[16] = system: HS 578T breast
[17] = system: A549 NSCLC
[18] = system: IGROV1 ovarian
[19] = system: NCI/ADR-RES ovarian
[20] = system: HL-60(TB) leukemia
[21] = system: HOP-92 NSCLC
[22] = system: KM12 colon
[23] = system: CCRF-CEM leukemia
[24] = system: UACC-257 melanoma
[25] = system: SW-620 colon
[26] = system: RXF 393 renal
[27] = system: MALME-3M melanoma
[28] = system: U251 CNS
[29] = system: UO-31 renal
[30] = system: SR leukemia
[31] = system: SF-295 CNS
[32] = system: OVCAR-3 ovarian
[33] = system: M14 melanoma
[34] = system: OVCAR-8 ovarian
[35] = system: LOX IMVI melanoma
[36] = system: PC-3 prostate
[37] = system: HT29 colon
[38] = system: NCI-H23 lung
[39] = system: SK-OV-3 ovarian
[40] = system: SK-MEL-2 melanoma
[41] = system: DU-145 prostate
[42] = system: NCI-H226 lung
[43] = system: UACC-62 melanoma
[44] = system: HOP-62 NSCLC
[45] = system: RPMI-8226 leukemia
[46] = system: HCC-2998 colon
[47] = system: SF-539 CNS
[48] = system: HCT-15 colon
[49] = system: NCI-H522 lung
[50] = system: K-562 leukemia
[51] = system: OVCAR-5 ovarian
[52] = system: TK-10 renal
[53] = system: SF-268 CNS
[54] = system: MDA-MB-231 breast
[55] = system: SNB-19 CNS
[56] = system: SK-MEL-5 melanoma
[57] = system: EKVX NSCLC

## Cc1cc(C)c(C#N)c(SCC(=O)c2sc3c(C#N)c(C)cc(C)[n+]3c2[O-])n1
[1]
  GI50: 617 nM
  TGI: > 100000 nM
[2]
  GI50: 596 nM
  TGI: > 100000 nM
[3]
  GI50: 725 nM
  TGI: > 100000 nM
[4]
  GI50: 336 nM
  TGI: > 27200 nM
[5]
  GI50: 1410 nM
  TGI: > 100000 nM
[6]
  GI50: 383 nM
  TGI: 6250 nM
[7]
  GI50: 2240 nM
  TGI: > 100000 nM
[8]
  GI50: 859 nM
  TGI: > 100000 nM
[9]
  GI50: 692 nM
  TGI: > 52600 nM
[10]
  GI50: 166 nM
  TGI: > 100000 nM
[11]
  GI50: 367 nM
  TGI: > 100000 nM
[12]
  GI50: 97.9 nM
  TGI: 538 nM
[13]
  GI50: 534 nM
  TGI: > 100000 nM
[14]
  GI50: 362 nM
  TGI: > 100000 nM
[15]
  GI50: 135 nM
  TGI: 2070 nM
[16]
  GI50: 335 nM
  TGI: > 100000 nM
[17]
  GI50: 474 nM
  TGI: > 100000 nM
[18]
  GI50: 1100 nM
  TGI: > 100000 nM
[19]
  GI50: 366 nM
  TGI: 17800 nM
[20]
  GI50: 277 nM
  TGI: 892 nM
[21]
  GI50: 514 nM
  TGI: > 50700 nM
[22]
  GI50: 401 nM
  TGI: > 100000 nM
[23]
  GI50: 333 nM
  TGI: > 100000 nM
[24]
  GI50: 531 nM
  TGI: > 100000 nM
[25]
  GI50: 340 nM
  TGI: > 100000 nM
[26]
  GI50: 238 nM
  TGI: 777 nM
[27]
  GI50: 4240 nM
  TGI: > 100000 nM
[28]
  GI50: 374 nM
  TGI: 98800 nM
[29]
  GI50: 1140 nM
  TGI: > 100000 nM
[30]
  GI50: 228 nM
  TGI: > 100000 nM
[31]
  GI50: 307 nM
  TGI: > 29300 nM
[32]
  GI50: 340 nM
  TGI: 1080 nM
[33]
  GI50: 309 nM
[34]
  GI50: 513 nM
  TGI: > 100000 nM
[35]
  GI50: 750 nM
  TGI: > 100000 nM
[36]
  GI50: 436 nM
  TGI: > 100000 nM
[37]
  GI50: 329 nM
  TGI: 1760 nM
[38]
  GI50: 697 nM
  TGI: > 100000 nM
[39]
  GI50: 678 nM
  TGI: > 100000 nM
[40]
  GI50: 624 nM
  TGI: 56200 nM
[41]
  GI50: 472 nM
[42]
  GI50: 1330 nM
  TGI: > 100000 nM
[43]
  GI50: 559 nM
  TGI: > 100000 nM
[44]
  GI50: 4170 nM
  TGI: > 100000 nM
[45]
  GI50: 491 nM
  TGI: > 100000 nM
[46]
  GI50: 867 nM
  TGI: > 100000 nM
[47]
  GI50: 88.1 nM
  TGI: 501 nM
[48]
  GI50: 242 nM
  TGI: > 100000 nM
[49]
  GI50: 244 nM
  TGI: 692 nM
[50]
  GI50: 376 nM
  TGI: > 100000 nM
[51]
  GI50: 607 nM
  TGI: > 100000 nM
[52]
  GI50: 1500 nM
  TGI: > 100000 nM
[53]
  GI50: 1130 nM
  TGI: > 100000 nM
[54]
  GI50: 890 nM
  TGI: > 100000 nM
[55]
  GI50: 504 nM
  TGI: > 100000 nM

## CN1C(=O)N(C)C2C1NN=c1s/c(=C\c3ccccc3F)c(=O)n12 (centres undefined)
[1]
  GI50: 140 nM
  TGI: > 100000 nM
[2]
  GI50: 520 nM
  TGI: > 100000 nM
[3]
  GI50: 684 nM
  TGI: > 100000 nM
[4]
  GI50: 80.7 nM
  TGI: 547 nM
[5]
  GI50: 5750 nM
  TGI: > 100000 nM
[6]
  GI50: 328 nM
  TGI: 1430 nM
[7]
  GI50: 1410 nM
  TGI: > 100000 nM
[8]
  GI50: 1390 nM
  TGI: > 100000 nM
[9]
  GI50: 741 nM
  TGI: > 100000 nM
[10]
  GI50: 69 nM
  TGI: > 100000 nM
[11]
  GI50: 354 nM
  TGI: > 56600 nM
[12]
  GI50: 38.7 nM
  TGI: 184 nM
[13]
  GI50: 671 nM
  TGI: > 100000 nM
[14]
  GI50: 351 nM
  TGI: > 100000 nM
[15]
  GI50: 175 nM
  TGI: 929 nM
[16]
  GI50: 287 nM
  TGI: > 100000 nM
[17]
  GI50: 439 nM
  TGI: > 100000 nM
[18]
  GI50: 633 nM
  TGI: > 100000 nM
[19]
  GI50: 229 nM
  TGI: > 100000 nM
[20]
  GI50: 224 nM
  TGI: 633 nM
[21]
  GI50: 8510 nM
  TGI: > 100000 nM
[22]
  GI50: 198 nM
  TGI: > 60200 nM
[23]
  GI50: 335 nM
  TGI: > 100000 nM
[24]
  GI50: > 100000 nM
  TGI: > 100000 nM
[25]
  GI50: 296 nM
  TGI: > 100000 nM
[26]
  GI50: 159 nM
  TGI: 491 nM
[27]
  GI50: 325 nM
  TGI: > 100000 nM
[28]
  GI50: 356 nM
  TGI: > 100000 nM
[56]
  GI50: 188 nM
  TGI: 4110 nM
[29]
  GI50: 657 nM
  TGI: > 100000 nM
[30]
  GI50: 93 nM
  TGI: > 100000 nM
[31]
  GI50: 186 nM
  TGI: > 100000 nM
[32]
  GI50: 170 nM
  TGI: 680 nM
[34]
  GI50: 516 nM
  TGI: > 100000 nM
[35]
  GI50: 565 nM
  TGI: > 100000 nM
[36]
  GI50: 296 nM
  TGI: > 100000 nM
[37]
  GI50: 312 nM
  TGI: > 36700 nM
[38]
  GI50: 534 nM
  TGI: > 100000 nM
[39]
  GI50: 446 nM
  TGI: > 100000 nM
[40]
  GI50: 629 nM
  TGI: > 100000 nM
[41]
  GI50: 325 nM
  TGI: 23900 nM
[42]
  GI50: 1230 nM
  TGI: > 100000 nM
[43]
  GI50: 371 nM
  TGI: > 100000 nM
[44]
  GI50: 480 nM
  TGI: > 100000 nM
[45]
  GI50: 364 nM
  TGI: > 66800 nM
[46]
  GI50: 422 nM
  TGI: > 100000 nM
[47]
  GI50: 217 nM
  TGI: 639 nM
[48]
  GI50: 145 nM
  TGI: > 100000 nM
[49]
  GI50: 229 nM
[50]
  GI50: 117 nM
  TGI: > 100000 nM
[51]
  GI50: 496 nM
  TGI: > 100000 nM
[57]
  GI50: 398 nM
  TGI: > 100000 nM
[52]
  GI50: > 20800 nM
  TGI: > 100000 nM
[53]
  GI50: 1220 nM
  TGI: > 100000 nM
[54]
  GI50: 541 nM
  TGI: > 41600 nM
[55]
  GI50: 448 nM
  TGI: > 100000 nM
